Source: article PMC10330904 (Toxicology and applied pharmacology, 2023)

Experiments:
[1] = test system: Acetylcholinesterase (AChE) (biochemical); settings: cited from earlier work; for IC50: read-out: tox21-ache-p5 (IC50)
[2] = target: Acetylcholinesterase (AChE) (with human microsomes); settings: read-out: tox21-ms-ache-p2 (IC50); cited from earlier work
[3] = test system: cell viability counter screens

| Compound | tox21-ache-p5 (IC50) [1] | IC50 [2] | IC50 [1] | viability assay hit rate [3] |
| --- | --- | --- | --- | --- |
| CCOP(=S)(Oc1ccc([N+](=O)[O-])cc1)c1ccccc1 (centres unmarked) | inactive | 2 µM |  |  |
| CCOP(=S)(OCC)SCn1nnc2ccccc2c1=O [Azinphos-ethyl] |  | 0.25 µM | 35.5 µM |  |
| CCOP(=S)(OCC)Oc1nc(Cl)c(Cl)cc1Cl [Chlorpyrifos] |  | 0.25 µM | 79.4 µM |  |
| CCOP(=S)(OCC)Oc1ccc2c(C)c(Cl)c(=O)oc2c1 [Coumaphos] |  | 1.07 µM | 53.7 µM |  |
| CCOP(=S)(OCC)SC(CCl)N1C(=O)c2ccccc2C1=O (centres unmarked) [Dialifor] |  | 1.41 µM | 63.1 µM |  |
| COP(N)(=S)Oc1ccccc1C(=O)OC(C)C (centres unmarked) [Isocarbophos] | inactive | 2.82 µM |  |  |
| CCOP(=S)(OCC)Oc1ccc([N+](=O)[O-])cc1 [Parathion] |  | 0.74 µM | 24.6 µM |  |
| CCOP(=S)(OCC)SCn1c(=O)oc2cc(Cl)ccc21 [Phosalone] | inactive | 5.89 µM |  |  |
| CCOP(=S)(OCC)O/N=C(\C#N)c1ccccc1 [Phoxim] |  | 1.66 µM | 56.2 µM |  |
| CCOP(=S)(OCC)Oc1cnc2ccccc2n1 [Quinalphos] |  | 1 µM | 79.4 µM |  |
| CCOP(=S)(OCC)SCSC(C)(C)C [Terbufos] | inactive | 47.9 µM |  |  |
| Oc1c(Cl)cc(Cl)cc1Sc1cc(Cl)cc(Cl)c1O [bithionol] |  |  |  | 98.78% |
| [H]/N=C(\N/C(=N/[H])NCCCCCCNC(=N)NC(=N)Nc1ccc(Cl)cc1)Nc1ccc(Cl)cc1 [chlorhexidine] |  |  |  | 97.56% |
| O=C1C(Cl)=C(Cl)C(=O)c2ccccc21 [dichlone] |  |  |  | 97.56% |
| Oc1c(Cl)cc(Cl)c(Cl)c1Cc1c(O)c(Cl)cc(Cl)c1Cl [hexachlorophene] |  |  |  | 97.56% |
| CC1=CC(=O)c2ccccc2C1=O [menadione] |  |  |  | 97.56% |
| Cc1cc(C(C)(C)CC(C)(C)C)ccc1OCCOCC[N+](C)(C)Cc1ccccc1.[Cl-] [methylbenzethonium chloride] |  |  |  | 97.56% |
| Oc1cc(Cl)ccc1Oc1ccc(Cl)cc1Cl [triclosan] |  |  |  | 97.56% |
